Values after ≈ are worked out from the molar mass of the structure shown.
Columns and labels:
[1] = test system: TPA-treated mouse ears (erythema, Δa* redness); assay: TPA mouse ear model of inflammation - erythema inhibition; type: in vivo; details: topical, 24 hours
Experimental: The protocol for measuring erythema inhibition by provided complexes was developed in-house by utilizing the CR-400 chroma meter from Konica Minolta (2). This instrument was used to measure the Δa*redness value from 6 mm biopsy punches taken 24 hours post TPA/compound treatment as described in the edema inhibition section above. […] These values were corrected for the Δa* value of non TPA-treated mouse ears of littermate controls.

[2] = test system: TPA-treated mouse ears (edema, ear thickness); assay: TPA mouse ear model of inflammation - edema inhibition; type: in vivo; details: topical, 24 hours
[3] = test system: MPO (myeloperoxidase), neutrophil marker; assay: TPA mouse ear model of inflammation - MPO inhibition (dermal neutrophil infiltration); type: in vivo; details: for % MPO Inhibition in the Mouse Ear Inflammation Assay (4% concentration): topical, 24 hours
Experimental: Briefly, we homogenized 6mm biopsy punches taken from both compound-treated ears as well as TPA-treated and non-treated control groups. We quantitated the levels of MPO by a colorimetric reaction that was measured spectrophotometrically. The percent inhibition of neutrophil infiltration by each complex was determined by comparing the average MPO levels in the presence and absence of these compounds. The calculation for percent inhibition of MPO was determined similar to that as described for calculating the percent edema inhibition, see the Edema Inhibition protocol, supra.

[4] = test system: MPO activity (neutrophil infiltration) in P. acnes-injected ear; assay: P. acnes-induced mouse ear model of inflammation - MPO endpoint; type: in vivo
Experimental: The methods for a model of P. acnes-inflammation are described elsewhere (Nakatsuji et al., J Invest Dermatol, 2008, 128: 2451-2457).
The protocol for inducing inflammation using P. acnes bacterial challenge on the mouse ear was slightly modified from the method described previously (Natatsuji et al., 2008). Briefly, Swiss Webster (ICR, 6-8 weeks old) mouse ears were injected with living P. acnes culture intradermally. An amount of 20 μl aliquots of living P. acnes (ATCC 6919, 3×10^6 CFU) suspended in PBS was intradermally injected in the central portion of the ear. As a control, 20 μl of PBS was injected into control animals.
To assay for inhibition of dermal neutrophil infiltration by AFC complexes, a standard method was used (see Bradley et al., J Invest Dermatol, 1982,78: 206-209; Young et al., J Invest Dermatol, 1983, 80: 48-52; De Young et al, Agents Actions, 1989, 26: 335-41; and Rao et al., Inflammation, 1993, 17: 723-41). Briefly, 6mm biopsy punches taken from both compound-treated ears as well as non-treated control ears were homogenized in 400 μl of 0.5% hexadecyltrimethylammonium bromide in 50 mM potassium phosphate buffer (pH 6.0) using the Fast Prep 24 (MP Biomedicals, Solon, Ohio). Supernatants were assayed for MPO activity using a model EL 340 96-well plate reader (BioTek Instruments, Winooski, Vt.). The percent inhibition of neutrophil infiltration by each AFC complex was determined by comparing the average MPO levels in the presence and absence of these compounds. The percent inhibition of MPO was determined by taking the average MPO activity of compound-treated ears and dividing it by the average MPO activity of 12 ears that only received the P. acnes challenge and subtracting that value from 100%. These values were corrected for the MPO activity of normal, non P. acnes-treated mouse ears of littermate controls. Summary of MPO activity ranges determined from an MPO activity assay for dexamethasone (administered at a dose of 1.6 mg/20 μL), clobetasol (administered at a dose of 0.1 mg/20 μL), salicylic acid (administered at a dose of 0.4 mg/20 μL), AFC (administered at a dose of 0.4 mg/20 μL), AFC-Strontium complex (administered at a dose of 0.4 mg/20 μL) and SFC-disodium are presented in Table 4. “+” indicates a range of 0-20%, “++” indicates a range of 20-40%, and “+++” indicates >40% inhibition.

[5] = test system: TPA-treated mouse ears (edema, ear thickness); assay: TPA mouse ear model of inflammation - edema inhibition; type: in vivo; details: TPA-treated mouse ear, at the dose tested; AFC oil n=1, data not shown
Experimental: In brief, mice were sedated and their ears were treated with 1.2 μg/20 uL TPA (i.e., tetradecanoylphorbol-13-acetate). After 5 minutes, we dosed these TPA-treated ears with a single 8 μg/20 μL dose, a 2 μg/20 μL dose, or both doses, of provided complexes. After 24 hours, the mice were sacrificed and edema was measured by taking micrometer readings of each ear. […] These values were corrected for the thickness of normal, non TPA-treated mouse ears of littermate controls.

[6] = test system: Propionibacterium acnes (strain ATCC 6919); assay: Inhibition of Propionibacterium acnes growth; type: cell-based; details: 72 hours, anaerobic, absorbance 600 nm, 1×10^6 CFU per mL
Experimental: The assay for the inhibition of growth of Propionibacterium acnes bacteria is described elsewhere (Nakatsuji et al., J Invest Dermatol, 2009, 129: 2480-2488). In brief, the strain ATCC 6919 of P. acnes (American Type Culture Collection, Manassas, Va.) was cultured on Brucella agar (R01254, Remel, Lenexa, Kans.) supplemented with 5% (v/v) defibrinated sheep blood, vitamin K (5 mg/ml, Remel, Lenexa, Kans.), and hemin (50 mg/ml, Remel, Lenexa, Kans.), under an anaerobic condition using Gas-Pak (BD, Sparks, Md.) at 37° C. A single colony was inoculated in Reinforced Clostridium Medium (Oxford, Hampshire, England) and cultured at 37° C. under the anaerobic condition. Each of the inventive complexes—AFC-Sr, AFC-Ag and AFC-Zn as well as AFC were dissolved in 100% (v/v) DMSO. Samples of each inventive complex, AFC and a solution of benzoyl peroxide (“BPO”) were then each incubated with an inoculum of P. acnes at a concentration of 1×10^6 CFU per mL in Reinforced Clostridium Medium in a 96-well microplate (100 μL per well) under anaerobic conditions for 72 hours. Samples of each were tested at final concentrations per well of 0.25 μg/mL, 0.5 μg/mL, 1.0 μg/mL, 1.95 μg/mL, 3.9 μg/mL, 7.8 μg/mL, 15.625 μg/mL, 31.25 μg/mL, 62.5 μg/mL, 125 μg/mL, 250μg/mL, and 500 μg/mL. A control well received only 5% (v /v) of DMSO in place of a sample of an inventive complex. After 72 hours incubation under anaerobic conditions, the P. acnes cultures in the 96-well microplate were mixed well and then absorbance readings at 600 nm were taken to determine bacterial growth. […] Growth curves of P. acnes determined for BPO, AFC, AFC-Sr, AFC-Ag and AFC-Zn are depicted in FIG. 3.

[7] = test system: mouse skin reepithelialization; assay: Mouse wound healing model - skin reepithelialization; type: in vivo
From the text: The healing of wounded skin is mediated by epidermal reepithelialization that requires keratinocyte migration. Glucocorticoids are known to inhibit wound healing (Ehrlich et al., Proc Soc Exp Biol Med, 1971, 137: 936-938; Leibovich et al., Am J Pathol, 1975, 78, 71-100). […] The methods for studying mouse skin reepithelialization using both partial and full thickness mouse wound healing models have been described elsewhere (Kim et al. Wound Repair Regen, 2001, 9: 386-390). In brief, for partial thickness wounds, a 3 mm-diameter circle of epidermis is removed from the ventral auricle. The resulting wound is cleansed and dressed with an occlusive polyurethane film. The mouse ears are excised on days 3, 5, 8, and 11 post-operation and fixed in 10% buffered formalin. Following day 8 post-operation, sampling of treated mice is performed to determine completion of healing. For full thickness wounds, mice heads are shaved and depilated prior to excising the skin. The cleaned and dressed wounds are harvested and fixed at days 3, 5, 8 and 10 and fixed in 10% buffered formalin.

“Calcium 4-((R)-1-carboxy-2-((2E,6E)-3,7,11-trimethyldodeca-2,6,10-trienylthio)ethylamino)-4-oxobutanoate [SFC-calcium complex]” was tested, and the “% Erythema Inhibition in the Mouse Ear Inflammation Assay (4% concentration)” value (“% Erythema Inhibition” below) [1] was “+++ (“+++” indicates >40% inhibition of erythema)”, the “% Edema Inhibition in the Mouse Ear Inflammation Assay (4% concentration)” value (shortened to “% Edema Inhibition”) [2] was “+++ (“+++” indicates >50% inhibition of edema)” and the “% MPO Inhibition in the Mouse Ear Inflammation Assay (4% concentration)” value (from here on “% MPO Inhibition”) ([3]; TPA-treated mouse ear) was “++ (“++” indicates a range of 40-80%)”.

With `CC(C)=CCC/C(C)=C/CC/C(C)=C/CSC[C@H](NC(=O)CCC(=O)[O-])C(=O)[O-].[Na+].[Na+]` [SFC-disodium] the “MPO % Inhibition” value ([4]; dose not given) was “+++ (“+++” indicates >40% inhibition)”, the “% Erythema Inhibition” value [1] was “++ (“++” indicates a range of 20-40%)” and the “% Edema Inhibition” value [2] was “++ (“++” indicates a range of 20-50%)”. The “% MPO Inhibition” value ([3]; TPA-treated mouse ear) was “++ (“++” indicates a range of 40-80%)”.

With `CC(C)=CCC/C(C)=C/CC/C(C)=C/CSC[C@H](NC(=O)CCC(=O)[O-])C(=O)O.[Na+]` [SFC-monosodium] the “% Erythema Inhibition” value [1] was “++ (“++” indicates a range of 20-40%)”, the “% Edema Inhibition” value [2] was “++ (“++” indicates a range of 20-50%)” and the “% MPO Inhibition” value ([3]; TPA-treated mouse ear) was “++ (“++” indicates a range of 40-80%)”.

In the case of `CC(C)=CCC/C(C)=C/CC/C(C)=C/CSC[C@H](NC(=O)CCC(=O)O)C(=O)O` [SFC, N-succinyl-S-farnesyl-L-cysteine], the “% Erythema Inhibition” value [1] is reported as “+ (“+”indicates a range of 0-20%)”, the “% Edema Inhibition” value [2] is reported as “+++ (“+++” indicates >50% inhibition of edema)” and the “% MPO Inhibition” value ([3]; TPA-treated mouse ear) is reported as “+++ (“+++” indicates >80% inhibition of MPO)”.

With `CC(=O)N[C@@H](CSC/C=C(\C)CC/C=C(\C)CCC=C(C)C)C(=O)O` [AFC-Glucosamine complex, Glucosamine (R)-2-acetamido-3-((2E,6E)-3,7,11-trimethyldodeca-2,6,10-trienylthio)propanoate] the “% Edema Inhibition” value [2] was “+++ (“+++” indicates >50% inhibition of edema)”, the inhibition of edema [5] was 70.84±5.25% and the “inhibition of neutrophil infiltration” value ([3]; TPA-treated mouse ear, at the dose tested, AFC oil n=1, data not shown) was 73.15±6.0%. For the same compound, the “% MPO Inhibition” value ([3]; TPA-treated mouse ear) was “++ (“++” indicates a range of 40-80%)”.

With `[Cl-].[Cl-].[Sr+2]` [Strontium chloride, reference compound] the “% Erythema Inhibition” value [1] was “+ (“+”indicates a range of 0-20%)”, the “% Edema Inhibition” value [2] was “+ (“+”indicates a range of 0-20%)” and the “biological activity compared with AFC-strontium complex (FIG. 1)” value ([3]; FIG. 1, follows the MPO discussion of b517, assay not named) was “no significant activity”.

With “Zinc (R)-2-acetamido-3-((2E,6E)-3,7,11-trimethyldodeca-2,6,10-trienylthio)propanoate [AFC-Zinc complex]” the “IC50 (inhibition of P. acnes growth)” value [6] was 9.2 mg/L.

In the case of `O=C(O)c1ccccc1O` [Salicylic Acid], the “MPO % Inhibition” value ([4]; dose of 0.4 mg/20 μL) is reported as “++ (“++” indicates a range of 20-40%)”.

With “Strontium (R)-2-amino-3-((2E,6E)-3,7,11-trimethyldodeca-2,6,10-trienylthio)propanoate [Farnesyl Cysteine-Strontium complex]” the “% Erythema Inhibition” value [1] was “++ (“++” indicates a range of 20-40%)” and the “% Edema Inhibition” value [2] was “++ (“++” indicates a range of 20-50%)”.

`O=C(OOC(=O)c1ccccc1)c1ccccc1` [BPO, benzoyl peroxide, reference compound] was tested, and the IC50 ([6]; Cutibacterium acnes, ATCC6919, 72 h, read-out: IC50 (inhibition of P. acnes growth)) was 161 mg/L (≈ 665 µM).

For `C[C@H]1C[C@H]2[C@@H]3CCC4=CC(=O)C=C[C@]4(C)[C@@]3(F)[C@@H](O)C[C@]2(C)[C@@]1(O)C(=O)CCl` [Clobetasol], the “MPO % Inhibition” value ([4]; dose of 0.1 mg/20 μL) was “+++ (“+++” indicates >40% inhibition)” and the “effect on mouse skin reepithelialization of wounds” value [7] was “significantly delayed”.

With `C[C@@H]1C[C@H]2[C@@H]3CCC4=CC(=O)C=C[C@]4(C)[C@@]3(F)[C@@H](O)C[C@]2(C)[C@@]1(O)C(=O)CO` [Dexamethasone] the “MPO % Inhibition” value ([4]; dose of 1.6 mg/20 μL) was “+++ (“+++” indicates >40% inhibition)”.

— patent US20100247461A1, “ANTI-INFLAMMATORY COMPLEXES” (Signum Biosciences, Inc., priority 2009, published 2010)
